# Experimental data published in patent US20240279191A1, “SMALL MOLECULE INHIBITORS OF TEAD-YAP” (The General Hospital Corporation, priority 2021, published 2024).
# Experiments:
# Myc-TEAD1 = Myc-TEAD1 (Homo sapiens, UniProt P28347); assay: Inhibition of Myc-TEAD1 palmitoylation in HEK293A cells; type: cell-based; details: 24 h, dose-dependent, FIG. 2C
# Procedure: HEK293A cells were seeded in 6 cm dishes overnight and transfected with plasmids using PEI reagent (1 μg/μL). Briefly, PRK5-Myc-TEAD1 (33109, Addgene) and PEI were diluted in serum-free DMEM medium in two tubes (DNA: PEI ratio=1:2). After standing still for 5 mins, mix them well and stay for another 20 mins. The mixture was then added to dishes directly.
# HEK293A cells with or without TEAD overexpression were pretreated with DMSO or TM2 in medium with 10% dialyzed fetal bovine serum (DFBS) for 8 h and labeled by Alkynyl Palmitic acid (1165, Click Chemistry Tools) for another 16 h. The cells were then washed and harvested by cold DPBS (14190250, Life Technologies). The cell pellets were isolated by centrifugation (500×g, 10 min) and lysed by TEA lysis buffer (50 mM TEA-HCl, pH 7.4, 150 mM NaCl, 1% Triton X-100, 0.2% SDS, 1×Protease inhibitor-EDTA free cocktail (05892791001, Roche), phosphatase inhibitor cocktail (P0044, Sigma-Aldrich)) on ice for 30 mins. The protein concentration was determined using Bio-Rad assay and adjusted to 1 mg/mL. 100 μL of protein sample mixture was treated with 10 μL of freshly prepared “click” mixture containing 1 mM TBTA, 10 mM TCEP, 10 mM CuSO4, 1 mM TBTA Biotin-Azide and incubated for 1 h at room temperature. […] The bound proteins were eluted with a buffer containing 10 mM EDTA pH 8.2 and 95% formamide and analyzed with SDS-PAGE. […]
# [1] = test system: endogenous TEAD1-4 (pan-TEAD); assay: Inhibition of endogenous pan-TEAD palmitoylation in HEK293A cells; type: cell-based
# Procedure: HEK293A cells with or without TEAD overexpression were pretreated with DMSO or TM2 in medium with 10% dialyzed fetal bovine serum (DFBS) for 8 h and labeled by Alkynyl Palmitic acid (1165, Click Chemistry Tools) for another 16 h. The cells were then washed and harvested by cold DPBS (14190250, Life Technologies). The cell pellets were isolated by centrifugation (500×g, 10 min) and lysed by TEA lysis buffer (50 mM TEA-HCl, pH 7.4, 150 mM NaCl, 1% Triton X-100, 0.2% SDS, 1×Protease inhibitor-EDTA free cocktail (05892791001, Roche), phosphatase inhibitor cocktail (P0044, Sigma-Aldrich)) on ice for 30 mins. The protein concentration was determined using Bio-Rad assay and adjusted to 1 mg/mL. 100 μL of protein sample mixture was treated with 10 μL of freshly prepared “click” mixture containing 1 mM TBTA, 10 mM TCEP, 10 mM CuSO4, 1 mM TBTA Biotin-Azide and incubated for 1 h at room temperature. The proteins were precipitated by chloroform/methanol/H20 mixture and redissolved with 2% SDS in 0.1% PBST. The solution was diluted with 0.1% PBST and incubated with prewashed streptavidin agarose beads (69203-3, E M D MILLIPORE). After rotation at room temperature for 2 h, the beads were then pelleted by centrifugation (500×g, 3 min) and washed with 0.2% SDS in PBS (3×1 mL). The bound proteins were eluted with a buffer containing 10 mM EDTA pH 8.2 and 95% formamide and analyzed with SDS-PAGE. […]
# [2] = test system: TEAD-YAP target genes (CTGF, Cyr61, ANKRD1); assay: Quantitative RT-PCR of TEAD-YAP target genes in H226 cells; type: cell-based, Human
# Procedure: […] The high-capacity cDNA reverse transcription kit (4368814, Life Technologies) was employed to obtain cDNA. Target genes expression (Cyr61, CTGF and ANKRD1) was measured with PowerUp SYB Green Master Mix kit (A25777, Life Technologies). β-actin was used as reference gene. The primers are shown below:
# [3] = test system: YAP/TAZ-TEAD direct target genes; assay: RNA-seq analysis in H226 cells; type: cell-based, Human; details: 1 μM TM2, versus K975 in H226 xenograft tumors (GSE156912), FIG. 7
# Procedure: The NCI-H226 cells were treated with TM2 at 1 μM for 24 hours. Total RNA was isolated with RNeasy Mini Kit (74104, Qiagen). The integrity of isolated RNA was analyzed using Bioanalyzer (Agilent Technologies). and the RNA-seq libraries were made by Novogene. All libraries have at least 50 million reads sequenced (150 bp paired-end). The heatmaps were generated using different expressed genes from TM2 treatment in NCI-H226 cells with Motpheus (https://software.broadinstitute.org/morpheus/). Principle component analysis (PCA) was determined by PCA function in M3C package in R. Gene Set Enrichment Analysis (GSEA) was performed using GSEA software from Broad Institute (http://software.broadinstitute.org/gsea/index.jsp). The YAP_TAZ-TEAD Direct Target Genes set were generated with the published YAP/TAZ-TEAD target genes (Zanconato et al., 2015).
# [4] = test system: Mouse hepatic progenitor organoids; assay: Organoids viability; type: cell-based; details: 40 nM
# Procedure: Mouse hepatic progenitor organoids (70932, […] Tech) were seeded in 96 well plate using 20 ul Matrigel (Corning, #354230) and cultured in HepatiCult™ Organoid Growth Medium (06031, […] Tech) with or without TM2. Medium was replaced after every 48 h with fresh compound. Organoid viability was measured by PrestoBlue™ HS Cell Viability Reagent (ThermoFisher, #P50200) following the manufacturer's protocol.
# [5] = test system: Mouse hepatic progenitor organoids; assay: Immunofluorescence staining of Ki67 in organoids; type: cell-based; details: 40 nM, 3D culture
# Procedure: Organoids were plated in 8 well chamber slide and fixed in 4% paraformaldehyde at 4° C. for 1h. After permeabilization in 0.5% PBST, organoids were blocked with 2% BSA for 2 h and incubated with primary antibody overnight at […]. Imaging was performed on Nikon A1RHD25 confocal microscope.
# HCT116 cells [6] = assay: Drug combination matrix TM2 + Trametinib, HCT116; type: cell-based, Human; details: 5 doses TM2 x 9 doses trametinib, day 5, Bliss, FIG. 10
# Procedure: The drug combination experiments were preformed using a drug combination matrix across 5 doses of TM2 (5 μM, 3-fold dilution) and 9 doses of Trametinib (10 μM, 3-fold dilution) in different tumor cell lines. Cell viability was determined at day 5 after the drugs administration by MTT. Drug synergy score was calculated followed Bliss rule. Synergy Score and Plot was generated by “Synergyfinder” package in R language.
# DHODH(H) = DHODH(H) (Homo sapiens, UniProt Q02127); assay: DHODH(H) (Table F1); details: three values in one cell
# KNS62 = KNS62 growth inhibition (SAR tables); type: cell-based
# [7] = Aqueous solubility (Aq Sol); type: physicochemical
# logD 7.4 = details: pH 7.4
# Metabolic stability MLM = details: % parent remained per Table G2
# HCT116 cells [8] = assay: Cell proliferation assay (MTT), HCT116; details: CRC cell line, FIG. 8D
# TEAD2 = TEAD2 (Homo sapiens, UniProt Q15562); assay: Inhibition of TEAD2 auto-palmitoylation in vitro; details: FIG. 1; 0.05 and 0.5 μM for 30 mins
# Sequence of TEAD2 (Q15562 whole entry): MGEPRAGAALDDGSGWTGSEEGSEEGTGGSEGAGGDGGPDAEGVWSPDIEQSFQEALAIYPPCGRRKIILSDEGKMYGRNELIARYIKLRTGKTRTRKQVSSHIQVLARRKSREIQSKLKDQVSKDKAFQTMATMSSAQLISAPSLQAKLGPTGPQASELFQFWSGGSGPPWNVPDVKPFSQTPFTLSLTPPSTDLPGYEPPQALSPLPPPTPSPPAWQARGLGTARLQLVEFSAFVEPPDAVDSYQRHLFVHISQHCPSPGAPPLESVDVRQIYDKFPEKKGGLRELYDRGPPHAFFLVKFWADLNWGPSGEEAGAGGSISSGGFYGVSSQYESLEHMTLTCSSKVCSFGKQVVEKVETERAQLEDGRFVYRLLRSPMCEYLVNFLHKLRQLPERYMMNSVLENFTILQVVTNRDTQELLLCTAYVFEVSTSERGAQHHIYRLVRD
# Sequence of DHODH(H) (Q02127 whole entry): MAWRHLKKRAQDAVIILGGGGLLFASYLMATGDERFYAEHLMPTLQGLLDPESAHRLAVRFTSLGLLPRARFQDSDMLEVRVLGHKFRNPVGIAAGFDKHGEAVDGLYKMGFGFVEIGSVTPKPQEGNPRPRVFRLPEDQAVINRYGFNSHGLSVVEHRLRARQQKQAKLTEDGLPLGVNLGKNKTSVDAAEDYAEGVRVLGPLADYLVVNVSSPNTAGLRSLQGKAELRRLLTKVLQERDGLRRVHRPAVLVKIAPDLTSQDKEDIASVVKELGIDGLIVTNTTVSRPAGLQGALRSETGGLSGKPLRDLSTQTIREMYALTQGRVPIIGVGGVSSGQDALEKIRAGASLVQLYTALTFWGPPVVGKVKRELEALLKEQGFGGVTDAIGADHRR
# Sequence of Myc-TEAD1 (P28347 whole entry): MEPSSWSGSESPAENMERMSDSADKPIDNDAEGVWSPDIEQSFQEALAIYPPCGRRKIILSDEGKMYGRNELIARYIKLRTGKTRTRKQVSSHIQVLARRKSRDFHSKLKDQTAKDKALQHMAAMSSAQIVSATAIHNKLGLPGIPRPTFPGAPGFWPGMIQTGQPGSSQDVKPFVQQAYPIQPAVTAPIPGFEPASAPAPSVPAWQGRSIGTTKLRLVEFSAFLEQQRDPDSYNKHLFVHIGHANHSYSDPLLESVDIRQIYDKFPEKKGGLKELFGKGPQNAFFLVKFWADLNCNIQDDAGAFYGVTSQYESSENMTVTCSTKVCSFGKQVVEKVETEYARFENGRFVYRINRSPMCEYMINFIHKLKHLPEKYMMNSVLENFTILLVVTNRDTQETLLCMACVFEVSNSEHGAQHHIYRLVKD
structure (smiles),measurement,setting,value
"O=C(Nc1ccccc1)N1CCN(C(=O)c2cccc(OCCC3CCCCC3)c2)CC1 [TM2, 4-(3-(2-cyclohexylethoxy)benzoyl)-N-phenylpiperazine-1-carboxamide]",Myc-TEAD1 palmitoylation in cells (in words),Myc-TEAD1,dramatically suppresses
same,Pan-TEAD palmitoylation at 100 nM (in words),[1]; 100 nM,diminished
same,endogenous TEAD1-4 (pan-TEAD) palmitoylation (in words),"[1]; HEK293A, 24 h, FIG. 2D",significantly inhibits
same,expression level of CTGF and ANKDR1 (in words),"[2]; H226, 24 and 48 h",significantly suppressed
same,expression of Cyr61 (in words),"[2]; H226, 48 h",strong response
same,block of YAP/TAZ-TEAD direct target genes (in words),[3],more efficient to block YAP/TAZ-TEAD target genes relative to K975
same,disruption of organoids growth,[4],more than 85%
same,Ki67 positive cells in organoids (in words),[5],significantly diminished
same,"combination with MEK inhibitor trametinib, HCT116 (in words)",HCT116 cells [6],strong inhibitory effects and substantial synergy
same,"DHODH(H):(GI50 μM/1,10 μM)",DHODH(H),5/6/15
same,KNS62: value at 1 μM,KNS62; 1 μM,37
same,KNS62: value at 10 μM,KNS62; 10 μM,28
same,Aq Sol,[7],2.3 µM
same,logD,logD 7.4,4.6
same,"Met stab MLM, 15 min",Metabolic stability MLM; 15 min,36%
same,"Met stab MLM, 60 min",Metabolic stability MLM; 60 min,4%
same,inhibition of HCT116 cell proliferation (in words),HCT116 cells [8],did not exhibit strong inhibition
same,inhibition of TEAD2 auto-palmitoylation (in words),TEAD2,most potent compound
